Literature values as cited in patent US20090061012A1 (priority 2007, published 2009).

How the values were obtained:
Details in all cases: in vivo
[1] = test system: Lemon, Blue, and Great White Sharks
sharks [2] = test system: sharks
sharks [3] = test system: sharks; remark: listed apart in the source
[4] = test system: shark's respiratory systems via the gill rakes

| Compound | repelling sharks relative to pardaxin [1] | further results |
| --- | --- | --- |
| CCCCCCCCCCCCOS(=O)(=O)[O-].[Li+] [LLS, lithium lauryl sulfate] | even better than pardaxin |  |
| CCCCCCCCCCCCOS(=O)(=O)[O-].[Na+] [SDS, sodium dodecyl sulphate] |  | concentration at which effective as a repellent (sharks [2]): 43.6 ppm |
| CCCCCCCCCCCCOS(=O)(=O)[O-].[Na+] [SLS, sodium lauryl sulfate] | even better than pardaxin | effectiveness in surrounding-cloud mode dispersions (sharks [3]): not effective |
| CCCCCCCCCCCCCCCCCCOS(=O)(=O)[O-].[Na+] [SOS, sodium octadecyl sulphate] | even better than pardaxin |  |
| pardaxin |  | repellent impact on sharks [4]: significant repellent impact |
